Data published in PMC12040169 (PLOS Biology, 2025).

Experiment: in vitro
Settings: human, hela cells, % viability

SMILES	viability at 28.5 h, 10 µM
CCC1CCC2(CC1)NC(=O)N(Cc1nc(-c3cccs3)no1)C2=O (stereo not drawn) [CBK305005]	92.6%
CCn1cc(C(=O)N2CCc3sccc3C2)c(=O)c2ccc(C)nc21 [CBK305006]	94.3%
CC1CCc2c(sc3ncnc(NC4CCN(CC(N)=O)CC4)c23)C1 (stereo not drawn) [CBK305008]	91.7%
CSc1ncccc1C(=O)NCc1ccc(NC(C)=O)cc1 [CBK305009]	97%
CC(=O)Nc1ccc(CNC(=O)c2ccoc2C)cc1 [CBK305010]	114%
Cc1ccc(Cc2cnc(NC(=O)C3CCCO3)s2)cc1Cl (stereo not drawn) [CBK305013]	96%
O=C(CSc1nnc(C2CC2)o1)Nc1ccc(CN2CCOCC2)cc1 [CBK305015]	86%
Cc1csc(NC(=O)c2cccc(S(=O)(=O)NCC3CCCO3)c2)n1 (stereo not drawn) [CBK305017]	96.7%
CCCn1c(SC(C)C(=O)N2CCOCC2)nc2ccc(Br)cc2c1=O (stereo not drawn) [CBK305020]	92.2%
CCNC(=O)C(C)NC(=O)c1cnn(-c2ccc(Br)cc2)c1C (stereo not drawn) [CBK305021]	79.3%
CCc1ccc(C(=O)C(C)OC(=O)c2nc3nc(C)cc(C)n3n2)cc1 (stereo not drawn) [CBK305023]	87.7%
Cc1nc(C)c(CCC(=O)Nc2cccc(F)c2)c(=O)[nH]1 [CBK305026]	90.3%
O=C(NCc1cccnc1)c1csc2c1CCCC2 [CBK305029]	86.4%
CCCc1cc(O)nc(SC(C)C(=O)N2CCOCC2)n1 (stereo not drawn) [CBK305030]	86%
CCC(C)NC(=O)CN1CCN(Cn2nnc3ccccc3c2=O)CC1 (stereo not drawn) [CBK305032]	100%
COCCNC(=O)c1cc(-c2ccc(C)cc2)nc2c1cnn2C(C)C [CBK305033]	93.8%
C#CCNC(=O)N1CCC(c2c[nH]c3ccccc23)CC1 [CBK305034]	87.4%
CCCCN(CC)S(=O)(=O)c1ccc(-n2ncc(Cl)c(Cl)c2=O)cc1 [CBK305036]	6.38%

SMILES	viability at 28.5 h, 10 µM
Cc1cccc(C(=O)N2CCN(Cc3cc(=O)n4ccsc4n3)CC2)c1 [CBK305037]	91%
CCC1CCCCN1S(=O)(=O)c1ccc(-n2ncc(Cl)c(Cl)c2=O)cc1 (stereo not drawn) [CBK305038]	13.9%
Cn1cnnc1CNC(=O)N1CCN(Cc2cccs2)CC1 [CBK305045]	86.3%
CNS(=O)(=O)c1cc(C(=O)NC2CCCc3ccccc32)n(C)c1 (stereo not drawn) [CBK305048]	103%
CCCCN(C)C(=O)Cn1nc(C)c2ccccc2c1=O [CBK305050]	81.4%
COCCNC(=O)c1cc(-c2ccc(C)s2)nc2c1cnn2C(C)C [CBK305051]	105%
COCCNC(=O)c1cc(-c2cc(C)oc2C)nc2c1cnn2C(C)C [CBK305052]	101%
Cn1ncc2c(=O)n(Cc3noc(-c4ccco4)n3)cnc21 [CBK305053]	97.1%
CC(=O)Nc1cccc(-n2cnnc2SCC2CCCCC2)c1 [CBK305054]	96.2%
Cc1ccc(C(=O)N2CCN(Cc3cc(=O)n4ccsc4n3)CC2)cc1 [CBK305057]	107%
CCNc1nnc(SCCC(=O)N2CCN(c3ccc(F)cc3)CC2)s1 [CBK305058]	100%
CCCn1cc(NC(=O)NC(CC)(CO)c2ccccc2)ccc1=O (stereo not drawn) [CBK305060]	104%
Cn1cc(CNC(=O)Nc2cccc(CN3CCCCC3=O)c2)cn1 [CBK305062]	91.4%
Cc1cc(NC(=O)N2CCN(CCNC(=O)C3CCCC3)CC2)no1 [CBK305064]	100%
Cn1cc(Nc2nc(-c3ccc(CCNS(C)(=O)=O)cc3)cs2)cn1 [CBK305065]	109%
Cc1nn(-c2ccccc2)c(Cl)c1CN1C(=O)NC2(CCCC2)C1=O [CBK305070]	91.9%
Cc1ccc(C)c(NC(=O)Cc2nc(CN3CCNC(=O)C3)cs2)c1 [CBK305071]	96.4%
Cc1ccccc1Nc1nc(N)nc(CN2CCCC(C(F)(F)F)C2)n1 (stereo not drawn) [CBK305073]	105%
